Data as given in US20250034211A1, “C-TERMINAL EXTENDED P53 ACTIVATOR CROSSLINKED PEPTIDOMIMETIC MACROCYCLES AGAINST MDM2/MDMX” (Merck Sharp & Dohme LLC, priority 2021, published 2025).
Converted amounts (≈) assume the structure as drawn. *1 amine or outer side, *2 acyl side, *3 side chain or, on linkers, in order; H or OH if unused. Where a SMILES comes first, the peptide text is derived from it. Bridges are numbered along the chain shown (N, C = ends). [ ]: non-standard residue; d: D form. ξ: configuration not given here. ξαMeNle(6-ylidene) = CC(CCCC=[*:3])(N[*:1])C(=O)[*:2]; X1 = CC(CCCCCCC=[*:3])(N[*:1])C(=O)[*:2]; Lys(N3) = [N-]=[N+]=NCCCC[C@H](N)C(=O)O; R8 = C=CCCCCCC[C@@](C)(N)C(=O)O; ξαMeE = CC(N)(CCC(=O)O)C(=O)O; Cba = N[C@@H](CC1CCC1)C(=O)O; S5 = C=CCCC[C@](C)(N)C(=O)O; βAla = NCCC(=O)O

How the values were obtained:
[1] = tested on: p53 (HCT116 cells stably transfected with a p53 responsive β-lactamase reporter); experiment: p53 beta-lactamase reporter gene cellular functional assay; assay type: cell-based
Method: HCT116 cells were stably transfected with a p53 responsive β-lactamase reporter, and were seeded into a 384-well plate at a density of 8,000 cells per well. Cells were maintained in McCoy's 5A Medium with 10% fetal bovine serum ([…]), Blasticidin and Penicillin/Streptomycin. The cells were incubated overnight and followed by removal of cell growth media and replaced with Opti-MEM either containing 0% FBS or 10% FBS. Peptides were then dispensed to each well using a liquid handler, ECHO 555 and incubated for 4/16 hours. Final working concentration of dimethyl sulfoxide (DMSO) was 0.5%. β-Lactamase activity was detected using the ToxBLAzer Dual Screen (Invitrogen) as per manufacturer's instructions. Measurements were done using Envision multiplate reader (Perkin-Elmer). Maximum p53 activity was defined as the amount of β-lactamase activity induced by 50 μM azide-ATSP-7041 (stapled p53 peptide; Aileron Therapeutics, Inc.). This was determined as the highest amount of p53 activity induced by azide-ATSP-7041 by titration on HCT116 cells.

p53 null Ca Ski = settings: for p53 null Ca Ski proliferation % Max: 72 h, 10% serum; for % inhibition at maximum concentration in p53 null negative control cell line: maximum assay concentration (50 uM)
[2] = tested on: Jump-In T-REx CHO-K1 BLA cells; experiment: Tetracycline beta-lactamase reporter gene assay (counter screen); assay type: cell-based
Method: Based on Jump-In™ T-REx™ CHO-K1 BLA cells and contain a stably integrated β-lactamase under the control of an inducible CMV promoter. Cells were seeded into a 384-well plate a density of 4000 cells per well. Cells were maintained in Dulbecco's Minimal Eagle Medium (DMEM) with 10% fetal bovine serum (FBS), Blasticidin and Penicillin/Streptomycin. The cells were incubated for 24 hours, followed by cell media removal and replacement with Opti-MEM either containing 10% FBS or 0% FBS. Peptides were then dispensed to each well using a liquid handler, ECHO 555 and incubated for 4/16 hours. Final working concentration of DMSO was 0.5%. β-Lactamase activity was detected using the ToxBLAzer Dual Screen (Invitrogen) as per manufacturer's instructions. Measurements were carried out using Envision multiplate reader (Perkin Elmer). Counter Screen activity was defined as the amount of 0-lactamase activity induced by tetracycline.

[3] = biological target: T1, MDM2 (1-125; SEQ ID NO 14) (Homo sapiens, UniProt Q00987); experiment: MDM2 binding assay (fluorescence anisotropy competition, FP)
T1 construct: GST (N); His6 (internal); TEV cleavage site ENLYFQG (internal); made in house; host or cells: E. coli BL21 (DE3) Rosetta T1R
Method: [P] is the protein concentration (MDM2), [L] is the labeled peptide concentration, r is the anisotropy measured, r0 is the anisotropy of the free peptide, rb is the anisotropy of the MDM2-FAM-labeled peptide complex, Kd is the dissociation constant, [L]t is the total FAM labeled peptide concentration, and [P]t is the total MDM2 concentration. […] The competing molecules were then titrated against the complex of the FAM-labeled peptide and protein. Apparent Kd values were determined by fitting the experimental data to the equations shown below:
[L]st and [L]t denote labeled ligand and total unlabeled ligand input concentrations, respectively. Kd2 is the dissociation constant of the interaction between the unlabeled ligand and the protein. In all competition experiments, it is assumed that [P]t>[L]st, otherwise considerable amounts of free labeled ligand would always be present and would interfere with measurements. […] The FAM-labeled peptide was dissolved in dimethyl sulfoxide (DMSO) at 1 mM and diluted into experimental buffer. Readings were carried out with an Envision Multilabel Reader (PerkinElmer). […] All titrations were carried out in triplicate. Curve-fitting was carried out using Prism 4.0 (GraphPad). […] Negative control titrations of the ligands under investigation were also carried out with the fluorescently labeled peptide (in the absence of MDM2) to ensure no interactions were occurring between the ligands and the FAM-labeled peptide.

HCT116 = settings: for HCT116 proliferation % Max: 72 h, 10% serum; for EC50: read-out: cellular efficacy in cell proliferation HTC116 p53 positive control cell lines
HCT116 cells = experiment: Lactate dehydrogenase release assay (LDH); assay type: cell-based
Method: HCT116 cells were seeded into a 384-well plate at a density of 8000 cells per well. Cells were maintained in McCoy's 5A Medium with 10% fetal bovine serum (FBS), Blasticidin and Penicillin/Streptomycin. The cells were incubated overnight followed by the removal of cell media and the addition of Opti-MEM Medium without FBS. Cells were then treated with peptides for 4/16 hours in Opti-MEM either in 10% FBS or serum free. Final concentration of DMSO was 0.5%. Lactate dehydrogenase release was detected using CytoTox-ONE Homogenous Membrane Integrity Assay Kit (Promega) as per manufacturer's instructions. Measurements were carried out using Tecan plate reader. Maximum LDH release was defined as the amount of LDH released induced by the lytic peptide (iDNA79) and used to normalize the results.

Solubility (PBS, pH 7) = settings: pH 7

T1 sequence (Q00987 with tags, fused parts or gaps): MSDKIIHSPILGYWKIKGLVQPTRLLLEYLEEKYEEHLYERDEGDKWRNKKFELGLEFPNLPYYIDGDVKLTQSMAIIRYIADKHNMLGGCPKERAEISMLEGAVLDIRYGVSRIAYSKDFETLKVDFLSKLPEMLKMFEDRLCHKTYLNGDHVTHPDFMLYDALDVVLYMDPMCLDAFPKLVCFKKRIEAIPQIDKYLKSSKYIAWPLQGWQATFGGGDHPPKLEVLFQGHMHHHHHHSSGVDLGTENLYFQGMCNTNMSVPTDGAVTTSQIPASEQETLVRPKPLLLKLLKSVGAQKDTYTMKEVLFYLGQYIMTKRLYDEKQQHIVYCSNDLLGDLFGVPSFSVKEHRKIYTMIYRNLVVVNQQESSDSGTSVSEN

Structure (SMILES) | EC50 ([1]; 0% serum at 4 hours) [nM] | EC50 ([1]; 10% serum at 16 hours) [nM] | fold improvement of cellular activity in p53 cellular assay ([1]; versus Reference Macrocycle 1, both 0% serum at 4 hours and 10% serum at 16 hours) [fold] | p53 null Ca Ski proliferation % Max (p53 null Ca Ski) [%] | % inhibition at maximum concentration in p53 null negative control cell line (p53 null Ca Ski) [%] | EC50 ([2]; 0% FBS, 4 h) [µM] | EC50 ([2]; 10% FBS, 16 h) [µM] | Kd [3] [nM] | HCT116 proliferation % Max (HCT116) [%] | EC50 (HCT116) [nM] | EC50 (HCT116 cells; 0% FBS, 4 h) [µM] | EC50 (HCT116 cells; 10% FBS, 16 h) [µM] | solubility (Solubility (PBS, pH 7); PBS) [µM] | logD (HPLC LogD) | solubility (Solubility (PBS, pH 7)) [µM] | chromatographic logD (HPLC LogD) | EC50 (p53 null Ca Ski; read-out: EC50 in p53 null negative control cell line) [µM]
CC(=O)N[C@@H](CCCCN=[N+]=[N-])C(=O)NCCC(=O)N[C@@H](CC(C)C)C(=O)N[C@H](C(=O)N[C@@H](Cc1ccccc1)C(=O)N[C@]1(C)CCCCCCC=CCCC[C@@](C)(C(=O)N[C@@H](C)C(=O)N[C@@H](C)C(=O)N[C@@H](C)C(=O)N[C@@H](C)C(=O)N[C@@H](C)C(=O)N[C@@H](C)C(N)=O)NC(=O)[C@H](CC2CCC2)NC(=O)[C@H](CCC(N)=O)NC(=O)[C@H](C)NC(=O)[C@H](Cc2c[nH]c3ccccc23)NC(=O)[C@H](Cc2ccc(O)cc2)NC(=O)[C@H](CCC(=O)O)NC1=O)[C@@H](C)O [Macrocycle 2, Ac-K(N3)-betaAla-L-T-F-X1a-E-Y-W-A-Q-Cba-X2a-AAAAAA-NH2 (olefin staple from X1a to X2a)] (Ac-[Lys(N3)][βAla]LTF[R8]EYWAQ[Cba][S5]AAAAAA-NH2; staple 6-13) | 143 | 749 | ~3.5 | 29 | 29 | > 50 | > 50 | 9.4 | 89 | 570 | > 50 | > 50 |  |  |  |  | 
CC(=O)N[C@@H](CCCCN=[N+]=[N-])C(=O)NCCC(=O)N[C@@H](CC(C)C)C(=O)N[C@H](C(=O)N[C@@H](Cc1ccccc1)C(=O)N[C@]1(C)CCCCCCC=CCCC[C@@](C)(C(=O)N[C@@H](C)C(=O)N[C@@H](C)C(=O)N[C@@H](Cc2ccccc2)C(=O)N[C@@H](C)C(=O)N[C@@H](C)C(=O)N[C@H](Cc2ccccc2)C(N)=O)NC(=O)[C@H](CC2CCC2)NC(=O)[C@H](CCC(N)=O)NC(=O)[C@H](C)NC(=O)[C@H](Cc2c[nH]c3ccccc23)NC(=O)[C@H](Cc2ccc(O)cc2)NC(=O)[C@H](CCC(=O)O)NC1=O)[C@@H](C)O [Macrocycle 5, Ac-K(N3)-betaAla-L-T-F-X1a-E-Y-W-A-Q-Cba-X2a-AAFAA-(D-Phe)-NH2(olefinstaple from X1ato X2a)] (Ac-[Lys(N3)][βAla]LTF[R8]EYWAQ[Cba][S5]AAFAA[dF]-NH2; staple 6-13) |  |  |  |  |  | > 50 | > 50 | 56 |  |  | > 50 | > 50 | 9 (≈ 20.9 µg/mL) | 4.12 |  |  | 
CC(=O)N[C@@H](CCCCN=[N+]=[N-])C(=O)NCCC(=O)N[C@@H](CC(C)C)C(=O)N[C@H](C(=O)N[C@@H](Cc1ccccc1)C(=O)N[C@]1(C)CCCCCCC=CCCC[C@@](C)(C(=O)N[C@@H](C)C(=O)N[C@@H](C)C(=O)N[C@@H](C)C(=O)N[C@@H](C)C(=O)N[C@@H](C)C(=O)N[C@@H](Cc2ccccc2)C(N)=O)NC(=O)[C@H](CC2CCC2)NC(=O)[C@H](CCC(N)=O)NC(=O)[C@H](C)NC(=O)[C@H](Cc2c[nH]c3ccccc23)NC(=O)[C@H](Cc2ccc(O)cc2)NC(=O)[C@H](CCC(=O)O)NC1=O)[C@@H](C)O [Macrocycle 6, Ac-K(N3)-betaAla-L-T-F-X1a-E-Y-W-A-Q-Cba-X2a-AAAAAF-NH2 (olefin staple from X1a to X2a)] (Ac-[Lys(N3)][βAla]LTF[R8]EYWAQ[Cba][S5]AAAAAF-NH2; staple 6-13) |  |  |  |  |  | > 50 | > 50 | 2.1 |  |  | > 50 | > 50 |  |  |  |  | 
CC(=O)N[C@@H](CCCCN=[N+]=[N-])C(=O)NCCC(=O)N[C@@H](CC(C)C)C(=O)N[C@H](C(=O)N[C@@H](Cc1ccccc1)C(=O)N[C@]1(C)CCCCCCC=CCCC[C@@](C)(C(=O)N[C@@H](C)C(=O)N[C@@H](C)C(=O)N[C@@H](Cc2ccccc2)C(=O)N[C@@H](C)C(=O)N[C@@H](C)C(=O)N[C@H](C)C(N)=O)NC(=O)[C@H](CC2CCC2)NC(=O)[C@H](CCC(N)=O)NC(=O)[C@H](C)NC(=O)[C@H](Cc2c[nH]c3ccccc23)NC(=O)[C@H](Cc2ccc(O)cc2)NC(=O)[C@H](CCC(=O)O)NC1=O)[C@@H](C)O [Macrocycle 7, Ac-K(N3)-betaAla-L-T-F-X1a-E-Y-W-A-Q-Cba-X2a-AAFAA-(D-Ala)-NH2(olefinstaple from X1ato X2a)] (Ac-[Lys(N3)][βAla]LTF[R8]EYWAQ[Cba][S5]AAFAA[dA]-NH2; staple 6-13) |  |  |  |  |  | > 50 | > 50 | 4.2 |  |  | > 50 | > 50 | 2 (≈ 4.49 µg/mL) | 3.59 |  |  | 
CC(=O)N[C@@H](CCCCN=[N+]=[N-])C(=O)NCCC(=O)N[C@@H](CC(C)C)C(=O)N[C@H](C(=O)N[C@@H](Cc1ccccc1)C(=O)NC1(C)CCCCCCC=CCCCC(C)(C(=O)N[C@@H](C)C(=O)N[C@@H](C)C(=O)N[C@@H](Cc2ccccc2)C(=O)N[C@@H](C)C(=O)NC(C)(CCC(=O)O)C(=O)N[C@@H](Cc2ccccc2)C(N)=O)NC(=O)[C@H](CC2CCC2)NC(=O)[C@H](CCC(N)=O)NC(=O)[C@H](C)NC(=O)[C@H](Cc2c[nH]c3ccccc23)NC(=O)[C@H](Cc2ccc(O)cc2)NC(=O)[C@H](CCC(=O)O)NC1=O)[C@@H](C)O (stereo partly drawn) [Macrocycle 9, Ac-K(N3)-betaAla-L-T-F-X1a-E-Y-W-A-Q-Cba-X2a-AAFA-(alpha-methyl-Glu)-F-NH2(olefinstaple from X1ato X2a)] (Ac-[Lys(N3)][βAla]LTF[X1]EYWAQ[Cba][ξαMeNle(6-ylidene)]AAFA[ξαMeE]F-NH2; staple 6-13) |  |  |  |  |  | > 50 | > 50 |  |  |  |  |  |  |  | 153 (≈ 366 µg/mL) | 2.93 | 
CC(=O)N[C@@H](CCCCN=[N+]=[N-])C(=O)NCCC(=O)N[C@@H](CC(C)C)C(=O)N[C@H](C(=O)N[C@@H](Cc1ccccc1)C(=O)N[C@]1(C)CCCCC#CC#CCCC[C@@](C)(C(=O)N[C@@H](C)C(=O)N[C@@H](C)C(=O)N[C@@H](C)C(=O)N[C@@H](C)C(=O)N[C@@H](C)C(=O)N[C@@H](C)C(N)=O)NC(=O)[C@H](CC2CCC2)NC(=O)[C@H](CCC(N)=O)NC(=O)[C@H](C)NC(=O)[C@H](Cc2c[nH]c3ccccc23)NC(=O)[C@H](Cc2ccc(O)cc2)NC(=O)[C@H](CCC(=O)O)NC1=O)[C@@H](C)O [Macrocycle 12, Ac-K(N3)-betaAla-L-T-F-X1b-E-Y-W-A-Q-Cba-X2b-AAAAAA-NH2 (di-alkyne staple from X1b to X2b)] |  |  |  | 3 | 3 | > 50 | > 50 |  | 72 | 124 | > 50 | > 50 |  |  |  | 2.69 | > 50
